{"source": "patent US11992499B2", "about": "“Quinoline derivatives for use in the treatment of inflammation diseases” (ABIVAX, priority 2018, dated 2024)", "key": {"[1]": {"tested_on": "STAM model of non-alcoholic steatohepatitis", "assay": "STAM model of NASH: HE staining and NAFLD Activity score", "format": "in vivo, mice", "parameters": "key to NAFLD Activity score (mean ± SD): NAFLD Activity score per Kleiner et al. 2005 criteria", "method": "(§1) NASH was induced in 48 male mice by a single subcutaneous injection of 200 μg streptozotocin (STZ, Sigma-Aldrich, USA) solution 2 days after birth and feeding with high fat diet (HFD, 57 kcal % fat, Cat #HFD32, CLEA Japan, Inc., Japan) after 4 weeks of age. Compound A was administered at 3 dose levels of 10, 20 and 40 mg/kg once daily from 6 to 9 weeks of age. Compound B was administered at a dose of 40 mg/kg once daily from 6 to 9 weeks of age. Telmisartan was administered at a dose of 10 mg/kg once daily from 6 to 9 weeks of age. For HE staining, sections were cut from paraffin blocks of liver tissue prefixed in Bouin's solution and stained with Lillie-Mayer's Hematoxylin (Muto Pure Chemicals Co., Ltd., Japan) and eosin solution (FUJIFILM Wako Pure Chemical Corporation). NAFLD Activity score (NAS) was calculated according to the criteria of Kleiner (Kleiner D E. et al., Hepatology, 2005; 41:1313). To visualize collagen deposition, Bouin's fixed liver sections were stained using picro-Sirius red solution (Waldeck, Germany). For quantitative analysis of fibrosis area, bright field images of Sirius red-stained sections were captured around the central vein using a digital camera (DFC295; Leica, Germany) at 200-fold magnification, and the positive areas in 5 fields/section were measured using ImageJ software (National Institute of Health, USA)."}, "[2]": {"tested_on": "STAM model of non-alcoholic steatohepatitis", "assay": "STAM model of NASH: Alpha-SMA immunostaining", "format": "in vivo, mice", "settings": "for Alpha-SMA-positive area (mean ± SD): n = 8", "method": "NASH was induced in 48 male mice by a single subcutaneous injection of 200 μg streptozotocin (STZ, Sigma-Aldrich, USA) solution 2 days after birth and feeding with high fat diet (HFD, 57 kcal % fat, Cat #HFD32, CLEA Japan, Inc., Japan) after 4 weeks of age. Compound A was administered at 3 dose levels of 10, 20 and 40 mg/kg once daily from 6 to 9 weeks of age. Compound B was administered at a dose of 40 mg/kg once daily from 6 to 9 weeks of age. Telmisartan was administered at a dose of 10 mg/kg once daily from 6 to 9 weeks of age. […] (Table 9 herein after)"}, "Sugen hypoxia model": {"tested_on": "Sugen hypoxia model", "assay": "Rat Sugen hypoxia model of pulmonary arterial hypertension: mean pulmonary pressure", "format": "in vivo", "settings": "for Effect on mean pulmonary arterial pressure: rat Sugen hypoxia model, 70 mg/kg; for Mean Pulmonary Pressure: SuHx", "method": "Animals from Groups 2 to 5 (see Table 10) receive a single subcutaneous injection of sugen (20 mg/kg in 2 mL/kg volume) solution (10 mg/mL) on Day 0 and returned to their cages. Animals from Group 1 receive one subcutaneous injection of DMSO at 2 mL/kg (vehicle for sugen) on Day 0 and returned to their respective cages.\nGroups 2-5 are placed in cages for which the controlled air is adjusted to receive a FiO2 equivalent to 0.10 (10%) using a mixture of nitrogen and ambient air controlled by the ventilated cage system. They are kept under these hypoxic conditions for 21 days. While in hypoxia, cages are cleaned and changed once a week, exposing the animals to ambient oxygen levels for less than 10 minutes. They are exposed to ambient oxygen levels from Day 22 to Day 56. Group 1 animals remain in cages exposed to ambient oxygen (normoxic) levels for 56 days. The animals are observed on a daily basis for any changes in their behaviour and general health status.\nTreatment with the compound A, sildenafil or vehicle is administered as of Day 22 (Groups 2-5) as scheduled and described in Table 10. The Groups 2-4 receives a single dose per day. The reference group 5 receives sildenafil twice a day. Food and water are given ad libitum. Daily observation of the behaviour and general health status of the animals is done. Weekly body weight is taken.\nSurgical Instrumentation and Measurement of Hemodynamic and Functional Parameters in Efficacy Study Animals • 1. On the selected day of surgery, rats are anaesthetized with a mixture of 2 to 2.5% isoflurane USP (Abbot Laboratories, Montreal, Canada) in oxygen, and placed on a heating pad to maintain body temperature. • 2. Rats are tracheotomized and immediately ventilated by means of a positive-pressure rodent respirator set at ≈10 ml/kg body weight at a frequency of 65-70 strokes/min. • 3. Lead II ECG contact electrodes is placed on the rat to continuously monitor the ECG during the surgical procedure. • 4. A cannula connected to a pressure transducer is inserted into the left femoral artery to measure the arterial blood pressure. • 5. A cannula connected to a pressure transducer is inserted into the right atria through the right jugular vein to measure the right atria pressure. • 6. The heart is exposed through a sternotomy and a 20GA 1.16 in Insyte is introduced into the right ventricle and rapidly hooked up to a saline filled PE-50 catheter connected to a transducer. • 7. Following a few seconds of right ventricular pressure recording, the Insyte is further advanced into the pulmonary artery to allow PAP recording for an additional 60 seconds. • 8. Hemodynamic parameters are recorded continuously for the duration of the procedure or until loss of PAP signal. • 9. Following hemodynamic monitoring, chest cavity is further opened to expose the lung. The muscle over the trachea is dissected away to remove the lungs and heart. Harvested tissue is rinsed with PBS to remove any excess of blood before to be weighed. • 10. For the histology and casting of the lungs, the process is as follows; 1) eight (8) rats per group is reserved to assess the histology of the left lung and is therefore be treated as described in point 12 of this section 8.2; 2) Two (2) rats per group serve to enable quantitative characterization of the three-dimensional vascular structure of the left lung and therefore is treated as described in section 8.3 for casting of the left lung. • 11. For histology, the left lobe is inflated using a 10 mL syringe filled with fixative (10% NBF) with attached blunt tip needle (23 g). Needle tip is inserted into the trachea, held in place with tied suture while another syringe is tied to the pulmonary artery. The lung is inflated gently at physiological pressure (20-25 mmHg) until all lobes are fully, uniformly, and consistently expanded (not allowing fixative to ooze through lung surface). This provides optimal vascular and airway expansion without causing excessive tissue disruption. […]"}, "[3]": {"tested_on": "STAM model of non-alcoholic steatohepatitis", "assay": "STAM model of NASH: Sirius red staining, fibrosis area", "format": "in vivo, mice", "settings": "for Sirius red-positive area (fibrosis area, mean ± SD): n = 8", "method": "as §1"}, "[4]": {"settings": "summary statement, dose not stated"}, "[5]": {"settings": "10 mg/kg PO QD, 6-9 wks of age (Compound A low, Telmisartan groups), n = 8"}, "[6]": {"settings": "20 mg/kg PO QD (Compound A middle group)"}, "[7]": {"settings": "20 mg/kg PO QD, 6-9 wks of age (Compound A middle group), n = 8"}, "[8]": {"settings": "40 mg/kg PO QD, 6-9 wks of age (Compound A high, Compound B groups), n = 8"}, "[9]": {"settings": "10 mg/kg PO QD, 6-9 wks of age (Compound A low, Telmisartan groups)"}, "[10]": {"settings": "20 mg/kg PO QD, 6-9 wks of age (Compound A middle group)"}, "[11]": {"settings": "40 mg/kg PO QD, 6-9 wks of age (Compound A high, Compound B groups)"}}, "note": "“Also recorded” adds a separate entry of the source.", "data": [{"smiles": "FC(F)(F)Oc1ccc(Nc2ccc3cccc(Cl)c3n2)cc1", "note": "[8-Chloro-N-(4-(trifluoromethoxy)phenyl)quinolin-2-amine]", "values": [{"measurement": "NAS compared with the Vehicle group", "setting": "[1]; [4]", "value": "decreasing trend"}, {"measurement": "Alpha-SMA in the liver", "setting": "[2]; [4]", "value": "decreases"}, {"measurement": "Effect on mean pulmonary arterial pressure", "setting": "Sugen hypoxia model", "value": "tendency to decrease"}]}, {"smiles": "FC(F)(F)Oc1ccc(Nc2ccc3cccc(Cl)c3n2)cc1", "note": "[Compound A, 8-Chloro-N-(4-(trifluoromethoxy)phenyl)quinolin-2-amine]", "values": [{"measurement": "NAS compared with the Vehicle group", "setting": "[1]; 10 mg/kg PO QD (Compound A low, Telmisartan groups)", "value": "tended to decrease; also recorded: decreasing trend"}, {"measurement": "Hepatocyte ballooning score 0 (None), number of mice", "setting": "[1]; [5]", "value": 3}, {"measurement": "Hepatocyte ballooning score 1 (Few balloon cells), number of mice", "setting": "[1]; [5]", "value": 2}, {"measurement": "Hepatocyte ballooning score 2 (Many cells/prominent ballooning), number of mice", "setting": "[1]; [5]", "value": 3}, {"measurement": "Lobular inflammation score 2 (2-4 foci/200×), number of mice", "setting": "[1]; [5]", "value": 7}, {"measurement": "Lobular inflammation score 3 (>4 foci/200×), number of mice", "setting": "[1]; [5]", "value": 1}, {"measurement": "NAFLD Activity score (mean ± SD)", "setting": "[1]; [5]", "value": "3.6 ± 1.1"}, {"measurement": "Steatosis score 0 (<5%), number of mice", "setting": "[1]; [5]", "value": 4}, {"measurement": "Steatosis score 1 (5-33%), number of mice", "setting": "[1]; [5]", "value": 4}, {"measurement": "NAS compared with the Vehicle group", "setting": "[1]; [6]", "value": "tended to decrease; also recorded: decreasing trends"}, {"measurement": "Hepatocyte ballooning score 0 (None), number of mice", "setting": "[1]; [7]", "value": 3}, {"measurement": "Hepatocyte ballooning score 1 (Few balloon cells), number of mice", "setting": "[1]; [7]", "value": 3}, {"measurement": "Hepatocyte ballooning score 2 (Many cells/prominent ballooning), number of mice", "setting": "[1]; [7]", "value": 2}, {"measurement": "Lobular inflammation score 2 (2-4 foci/200×), number of mice", "setting": "[1]; [7]", "value": 6}, {"measurement": "Lobular inflammation score 3 (>4 foci/200×), number of mice", "setting": "[1]; [7]", "value": 2}, {"measurement": "NAFLD Activity score (mean ± SD)", "setting": "[1]; [7]", "value": "3.4 ± 1.2"}, {"measurement": "Steatosis score 0 (<5%), number of mice", "setting": "[1]; [7]", "value": 6}, {"measurement": "Steatosis score 1 (5-33%), number of mice", "setting": "[1]; [7]", "value": 2}, {"measurement": "NAS compared with the Vehicle group", "setting": "[1]; 40 mg/kg PO QD (Compound A high, Compound B groups)", "value": "tended to decrease; also recorded: decreasing trend"}, {"measurement": "Hepatocyte ballooning score 0 (None), number of mice", "setting": "[1]; [8]", "value": 5}, {"measurement": "Hepatocyte ballooning score 1 (Few balloon cells), number of mice", "setting": "[1]; [8]", "value": 2}, {"measurement": "Hepatocyte ballooning score 2 (Many cells/prominent ballooning), number of mice", "setting": "[1]; [8]", "value": 1}, {"measurement": "Lobular inflammation score 1 (<2 foci/200×), number of mice", "setting": "[1]; [8]", "value": 1}, {"measurement": "Lobular inflammation score 2 (2-4 foci/200×), number of mice", "setting": "[1]; [8]", "value": 2}, {"measurement": "Lobular inflammation score 3 (>4 foci/200×), number of mice", "setting": "[1]; [8]", "value": 5}, {"measurement": "NAFLD Activity score (mean ± SD)", "setting": "[1]; [8]", "value": "3.4 ± 1.3"}, {"measurement": "Steatosis score 0 (<5%), number of mice", "setting": "[1]; [8]", "value": 5}, {"measurement": "Steatosis score 1 (5-33%), number of mice", "setting": "[1]; [8]", "value": 3}, {"measurement": "Overall effect in this NASH model", "setting": "[1]; conclusion of the study", "value": "potential anti-NAS and anti-fibrosis effects"}, {"measurement": "NAS compared with the Vehicle group", "setting": "[1]; [4]", "value": "decreasing trends"}, {"measurement": "Sirius red-positive area (fibrosis area, mean ± SD)", "setting": "[3]; [9]", "value": "0.70 ± 0.11", "unit": "%"}, {"measurement": "Fibrosis area (Sirius red-positive area) compared with the Vehicle group", "setting": "[3]; [6]", "value": "tended to decrease; also recorded: decreasing trends"}, {"measurement": "Sirius red-positive area (fibrosis area, mean ± SD)", "setting": "[3]; [10]", "value": "0.65 ± 0.13", "unit": "%"}, {"measurement": "Sirius red-positive area (fibrosis area, mean ± SD)", "setting": "[3]; [11]", "value": "0.68 ± 0.14", "unit": "%"}, {"measurement": "Pathological deposition of collagen in the liver (Sirius red staining)", "setting": "[3]; [4]", "value": "decreasing trend"}, {"measurement": "Alpha-SMA-positive area (mean ± SD)", "setting": "[2]; [9]", "value": "1.39 ± 1.25", "unit": "%"}, {"measurement": "Alpha-SMA-positive area (mean ± SD)", "setting": "[2]; [10]", "value": "0.91 ± 0.55", "unit": "%"}, {"measurement": "Alpha-SMA-positive area compared with the Vehicle group", "setting": "[2]; 40 mg/kg PO QD (Compound A high group)", "value": "tended to decrease"}, {"measurement": "Alpha-SMA-positive area (mean ± SD)", "setting": "[2]; [11]", "value": "0.85 ± 0.41", "unit": "%"}, {"measurement": "Mean Pulmonary Pressure", "setting": "Sugen hypoxia model; female rats, 70 mg/kg QD gavage Day 22 to Day 56", "value": 24.1, "unit": "mmHg"}, {"measurement": "Mean Pulmonary Pressure", "setting": "Sugen hypoxia model; female rats, 120 mg/kg QD gavage Day 22 to Day 56", "value": 34.4, "unit": "mmHg"}, {"measurement": "Mean Pulmonary Pressure", "setting": "Sugen hypoxia model; male rats, 70 mg/kg QD gavage Day 22 to Day 56", "value": 26.8, "unit": "mmHg"}, {"measurement": "Mean Pulmonary Pressure", "setting": "Sugen hypoxia model; male rats, 120 mg/kg QD gavage Day 22 to Day 56", "value": 33.6, "unit": "mmHg"}, {"measurement": "Effect on mean pulmonary arterial pressure", "setting": "Sugen hypoxia model", "value": "tendency to decrease"}]}]}
